From patent publication US9839642B2, “Beta-tetrazolyl-propionic acids as metallo-beta-lactamase inhibitors” (priority 2014, dated 2017)
Where two headings read alike, the source gives them in different places.

Experiments:
IMP-1 = IMP-1 (Serratia marcescens, UniProt P52699); assay: Enzyme activity: determination of IC50, fluorescence assay with CCF2-FA substrate; type: biochemical; details: CCF2-FA 1.25 μM, 2 hours at 25° C., read-out: IMP1 IC50
How it was run: (§1)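 100 mM KH2PO4 pH 7 + 0.005% Tween-20 + 10 μM ZnSO4; CCF2-FA 1.25 μM; NDM-1 1 pM, IMP-1 2 pM, VIM-1 30 pM; cpd 20–0.00063 μM final, DMSO 1:50. 2 h, 25° C. Ex 405/em 460 nm; IC50, 4-param fit.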

NDM-1 = NDM-1 (Klebsiella pneumoniae, UniProt C7C422); assay: as above; type: biochemical; details: CCF2-FA 1.25 μM, 2 hours at 25° C., read-out: NDM1 IC50
How it was run: as §1

VIM-1 = VIM-1 (Pseudomonas aeruginosa, UniProt A0A0F7KYQ8); assay: as above; type: biochemical; details: CCF2-FA 1.25 μM, 2 hours at 25° C., read-out: VIM1 IC50
How it was run: as §1

[1] = tested on: Escherichia coli expressing NDM-1 (CLB30005); assay: Antibiotic potentiation activity: synergistic concentration (MITC95) with imipenem, growth by OD600; type: cell-based
How it was run: (§2)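 MITC95 = lowest inhibitor concentration giving 95% growth inhibition, read by absorbance after 22–24 h at 35° C. Compound range 200 μM to 0.195 μM, imipenem fixed at 1 or 4 μg/ml, bacteria in 1.1×CAMHB from saline suspension diluted 1:100.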

[2] = tested on: Klebsiella pneumoniae expressing VIM-1 (IHMA599644); assay: as above; type: cell-based
How it was run: as §2

[3] = tested on: Serratia marcescens expressing IMP-1 (CL5741); assay: as above; type: cell-based
How it was run: as §2

[4] = 95% inhibition of bacterial growth, strain CLB30005
[5] = 95% inhibition of bacterial growth, strain IHMA599644
[6] = 95% inhibition of bacterial growth, strain CL5741
[7] = E. coli CLB30005 (NDM-1), 95% inhibition of growth
[8] = K. pneumoniae IHMA599644 (VIM-1), 95% inhibition of growth
[9] = S. marcescens CL5741 (IMP-1), 95% inhibition of growth

Chain of IMP-1 (P52699 19-246, looked up, species assumed): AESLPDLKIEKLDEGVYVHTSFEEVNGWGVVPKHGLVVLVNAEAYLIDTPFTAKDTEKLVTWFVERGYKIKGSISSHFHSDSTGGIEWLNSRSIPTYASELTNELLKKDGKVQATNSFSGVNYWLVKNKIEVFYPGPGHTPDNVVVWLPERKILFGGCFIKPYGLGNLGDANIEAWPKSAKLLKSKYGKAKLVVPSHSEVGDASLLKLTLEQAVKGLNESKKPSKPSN
Chain of NDM-1 (C7C422 29-270, looked up, species assumed): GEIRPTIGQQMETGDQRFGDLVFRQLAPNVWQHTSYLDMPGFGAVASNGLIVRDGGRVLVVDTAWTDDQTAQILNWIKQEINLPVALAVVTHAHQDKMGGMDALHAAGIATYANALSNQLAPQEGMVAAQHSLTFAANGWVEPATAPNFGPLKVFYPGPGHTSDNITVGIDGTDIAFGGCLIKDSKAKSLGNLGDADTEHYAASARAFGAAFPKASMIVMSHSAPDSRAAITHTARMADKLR

SMILES | IC50 (IMP-1; enzyme 2 pM) | IC50 (NDM-1; enzyme 1 pM) | IC50 (VIM-1; enzyme 30 pM) | NDM1 EC30005 MITC95 [1, 4] | VIM1 KP599644 MITC95 [2, 5] | IMP1 SM5741 MITC95 [3, 6] | IC50 (IMP-1; IMP-1 enzyme 2 pM) | IC50 (NDM-1; NDM-1 enzyme 1 pM) | IC50 (VIM-1; VIM-1 enzyme 30 pM) | NDM1 EC30005 MITC95 [1, 7] | VIM1 KP599644 MITC95 [2, 8] | IMP1 SM5741 MITC95 [3, 9]
CC[C@H](C(=O)O)[C@H](Cc1ccccc1)c1nnn[nH]1 [Example 8, (2S,3S)-2-ethyl-4-phenyl-3-(1H-tetrazol-5-yl)butanoic acid] | 1800 nM | 81 nM | 21 nM | 9.4 µM | 62.5 µM | 125 µM |  |  |  |  |  | 
CCCCC[C@H](C(=O)O)[C@H](Cc1ccc2c(c1)OCO2)c1nnn[nH]1 [Example 39, (2S)-2-[(1S)-2-(1,3-benzodioxol-5-yl)-1-(1H-tetrazol-5-yl)ethyl]heptanoic acid] | 210 nM | 86 nM | 11 nM | 75 µM | 100 µM | >200 µM |  |  |  |  |  | 
CCC[C@H](C(=O)O)[C@H](Cc1ccc(CCN2CCCCC2=O)cc1)c1nn[nH]n1 [Example 256, (2S)-2-[(1S)-2-{4-[2-(2-oxopiperidin-1-yl)ethyl]phenyl}-1-(2H-tetrazol-5-yl)ethyl]pentanoic acid] |  |  |  |  |  |  | 45 nM | 27 nM | 16 nM | 10.4 µM | 150 µM | 6.2 µM
CC(C)CCC[C@@H](C(=O)O)[C@H](Cc1ccccc1)c1nnn[nH]1 [Example 2, (R)-6-methyl-2-((S)-2-phenyl-1-(1H-tetrazol-5-yl)ethyl)heptanoic acid] | 68 nM | 5400 nM | 8200 nM | >200 µM | >200 µM | 100 µM |  |  |  |  |  | 
CCC[C@H](C(=O)O)[C@H](Cc1ccc(CCN2CCCC2=O)cc1)c1nn[nH]n1 [Example 253, (2S)-2-[(1S)-2-{4-[2-(2-oxopyrrolidin-1-yl)ethyl]phenyl}-1-(2H-tetrazol-5-yl)ethyl]pentanoic acid] |  |  |  |  |  |  | 97 nM | 34 nM | 9.1 nM | 12.5 µM | 50 µM | 38 µM
CCCC[C@@H](C(=O)O)[C@@H](Cc1ccc(-c2c(C)nn(C)c2C)cc1)c1nn[nH]n1 [Example 185, (2R)-2-{(1R)-1-(2H-tetrazol-5-yl)-2-[4-(1,3,5-trimethyl-1H-pyrazol-4-yl)phenyl]ethyl}hexanoic acid] | 11 nM | 880 nM | 740 nM | >200 µM | >200 µM | 100 µM |  |  |  |  |  | 
O=C(O)[C@@H](CCCCO)[C@H](Cc1ccccc1)c1nnn[nH]1 [Example 32, (S)-6-hydroxy-2-((S)-2-phenyl-1-(1H-tetrazol-5-yl)ethyl)hexanoic acid] | 5000 nM | 720 nM | 240 nM | 75 µM | 200 µM | >200 µM |  |  |  |  |  | 
O=C(O)[C@@H](CC(F)F)[C@H](Cc1ccccc1)c1nnn[nH]1 [Example 22, (2S,3S)-2-(2,2-difluoroethyl)-4-phenyl-3-(1H-tetrazol-5-yl)butanoic acid] | 2600 nM | 280 nM | 14 nM | 31 µM | 50 µM | 200 µM |  |  |  |  |  | 
CCC[C@H](C(=O)O)[C@H](Cc1ccc(-c2ccc3nncn3c2)cc1)c1nnn[nH]1 [Example 239, (2S)-2-[(1S)-1-(1H-tetrazol-5-yl)-2-(4-[1,2,4]triazolo[4,3-a]pyridin-6-ylphenyl)ethyl]pentanoic acid] | 190 nM | 20 nM | 1.7 nM | 38 µM | 75 µM | 38 µM |  |  |  |  |  | 
CCC[C@H](C(=O)O)[C@H](Cc1ccc(-c2cnc(N(C)S(C)(=O)=O)nc2)cc1)c1nnn[nH]1 [Example 242, (2S)-2-[(1S)-2-(4-{2-[methyl(methyl-sulfonyl)amino]pyrimidin-5-yl}phenyl)-1-(1H-tetrazol-5-yl)ethyl]pentanoic acid] | 70 nM | 9.3 nM | 1.6 nM | 38 µM | 100 µM | 12.5 µM |  |  |  |  |  | 
CCC[C@H](C(=O)O)[C@H](Cc1ccc(-c2ccc(N3CCOCC3)nc2)cc1)c1nn[nH]n1 [Example 203, (2S)-2-[(1S)-2-[4-(6-morpholin-4-ylpyridin-3-yl)phenyl]-1-(2H-tetrazol-5-yl)ethyl]pentanoic acid] | 60 nM | 14 nM | 4.3 nM | 9.4 µM | 200 µM | 9.4 µM |  |  |  |  |  | 
O=C(O)[C@@H](CCF)[C@H](Cc1ccccc1)c1nnn[nH]1 [Example 21, (2S,3S)-2-(2-fluoroethyl)-4-phenyl-3-(1H-tetrazol-5-yl)butanoic acid] | 2700 nM | 190 nM | 15 nM | 75 µM | >200 µM | >200 µM |  |  |  |  |  | 
O=C(O)[C@@H](CCCCc1ccccc1)[C@H](Cc1ccc2c(c1)OCO2)c1nnn[nH]1 [Example 37, (2S)-2-[(1S)-2-(1,3-benzodioxol-5-yl)-1-(2H-tetrazol-5-yl)ethyl]-6-phenylhexanoic acid] | 120 nM | 27 nM | 10 nM | 200 µM | >200 µM | 106 µM |  |  |  |  |  | 
CCC[C@H](C(=O)O)[C@H](Cc1ccc(CCC(O)CO)cc1)c1nn[nH]n1 (stereo partly drawn) [Example 255, (2S)-2-[(1S)-2-[4-(3,4-dihydroxybutyl)phenyl]-1-(2H-tetrazol-5-yl)ethyl]pentanoic acid] |  |  |  |  |  |  | 190 nM | 44 nM | 12 nM | 10.4 µM | 50 µM | 18.8 µM
CCC[C@H](C(=O)O)[C@H](Cc1ccc(-c2ccc(C(C)(C)O)nc2)cc1)c1nn[nH]n1 [Example 213, (2S)-2-[(1S)-2-{4-[6-(1-hydroxy-1-methylethyl)pyridin-3-yl]phenyl}-1-(2H-tetrazol-5-yl)ethyl]pentanoic acid] | 120 nM | 28 nM | 17 nM | 9.4 µM | 75 µM | 18.8 µM |  |  |  |  |  | 
CCC[C@H](C(=O)O)[C@H](Cc1ccc(-c2ccc3c(c2)CCNC3)cc1)c1nnn[nH]1 [Example 237, (2S)-2-[(1S)-2-[4-(1,2,3,4-tetrahydroisoquinolin-6-yl)phenyl]-1-(1H-tetrazol-5-yl)ethyl]pentanoic acid] | 88 nM | 88 nM | 4 nM | 9.4 µM | 38 µM | 4.7 µM |  |  |  |  |  | 
O=C(O)[C@@H](Cc1ccccc1)[C@H](Cc1ccccc1)c1nnn[nH]1 [Example 3, (2S,3S)-2-benzyl-4-phenyl-3-(1H-tetrazol-5-yl)butanoic acid] | 550 nM | 350 nM | 640 nM | 200 µM | >200 µM | 112.5 µM |  |  |  |  |  | 
CCC[C@H](C(=O)O)[C@H](Cc1ccc(-c2cncc(CN3CCCCC3)c2)cc1)c1nn[nH]n1 [Example 191, (2S)-2-[(1S)-2-{4-[5-(piperidin-1-ylmethyl)pyridin-3-yl]phenyl}-1-(2H-tetrazol-5-yl)ethyl]pentanoic acid] | 1100 nM | 260 nM | 8.3 nM | 25 µM | 62 µM | 62 µM |  |  |  |  |  | 
O=C(O)[C@H](CCC1CCCCC1)[C@@H](Cc1ccccc1)c1nnn[nH]1 [Example 31, (2R,3R)-2-(2-cyclohexylethyl)-4-phenyl-3-(1H-tetrazol-5-yl)butanoic acid] | 410 nM | 740 nM | 590 nM | >200 µM | >200 µM | >200 µM |  |  |  |  |  | 
CCC[C@H](C(=O)O)[C@H](Cc1ccc(-c2cnc(CO)s2)cc1)c1nnn[nH]1 [Example 249] |  |  |  |  |  |  | 46 nM | 8.4 nM | 1.9 nM | 100 µM | 100 µM | >200 µM
